Laboratory results reported in patent US8124807B2, “Sulfonyl-substituted 6-membered ring derivative” (MSD K.K., priority 2007, dated 2012).

What follows are compounds tested against T1, human LCE (Homo sapiens, UniProt Q9H5J4) (assay: LCE enzyme activity-inhibitory test). Settings: palmitoyl CoA and [14C]-malonyl CoA substrates, pH 6.5, 37° C., 90 minutes.
T1 sequence (Q9H5J4 1-265): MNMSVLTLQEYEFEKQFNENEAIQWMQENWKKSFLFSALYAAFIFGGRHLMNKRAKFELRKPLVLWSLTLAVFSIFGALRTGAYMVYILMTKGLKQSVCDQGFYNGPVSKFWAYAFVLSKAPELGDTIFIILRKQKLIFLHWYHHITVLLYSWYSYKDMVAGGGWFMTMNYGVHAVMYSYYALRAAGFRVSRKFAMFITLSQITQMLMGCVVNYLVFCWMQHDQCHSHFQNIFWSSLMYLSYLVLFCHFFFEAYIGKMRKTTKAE
Type: biochemical
Method: A test compound was dissolved in dimethyl sulfoxide (DMSO to be 10 mM), and then diluted with DMSO to prepare a 1000-fold concentrated solution of the test concentration. An improved Moon et al's method (J. Biol. Chem., Vol. 276, pp. 45358-45366, 2001) was employed for the LCE enzyme activity-inhibitor test. Concretely, the diluted compound was applied to a 96-well assay plate (Corning, 96-well assay block) in an amount of 1.0 μL/well; 50 μL of a phosphate buffer solution (100 mM potassium phosphate buffer, pH 6.5), and 25 μL of a substrate solution (100 mM potassium phosphate buffer (pH 6.5), 4.0 μM rotenone, 80 μM fatty acid-free bovine serum albumin, 160 μM palmitoyl CoA, 80 μM malonyl CoA, 3.5 μM [^14C]-malonyl CoA (1.92 GBq/mmol, by Amersham)) were added to each well; 25 μL of an enzyme solution (100 mM potassium phosphate buffer (pH 6.5), 100 μg/mL human LCE) was added thereto; the top of the plate was airtightly sealed up; and this was incubated with gently shaking and stirring at 37° C. for 90 minutes. Next, 100 μL of 5 N hydrochloric acid was added to each well, and the assay plate was stirred at room temperature for 5 minutes to stop the enzyme reaction with hydrolyzing the acyl CoA. Next, the enzyme reaction solution in each well was adsorbed by each well of a 96-well GF/C filter plate (Perkin Elmer Unifilter 96 GF/C); the individual wells were washed with water to remove the non-adsorbed malonyl CoA; and the GF/C filter plate was dried at 50° C. for 60 minutes. Next, 30 μL of a scintillator (Perkin Elmer Microscinti 0) was added to each well; then the top of the plate was sealed up; and the fixed [^14C] radioactivity was measured with a microplate scintillation counter (Perkin Elmer TopCount) to be the enzyme activity. The human LCE enzyme-inhibitory activity of the test compound was calculated, based on the radioactivity of the DMSO-added well with no test compound therein as a control.

Going from `CC(C)Oc1ccc(NC(=O)[C@@H]2CCC[C@@H](S(=O)(=O)c3ccccn3)C2)cc1` (racemic) [Example 2, (1R*,3R*)-N-(4-isopropoxyphenyl)-3-(pyridin-2-ylsulfonyl)cyclohexanecarboxamide] to `CC(C)Oc1ccc(NC(=O)[C@@H]2CCC[C@@H](S(=O)(=O)c3ccccn3)C2)nc1` (racemic) [Example 8, (1R*,3R*)-N-(5-isopropoxypyridin-2-yl)-3-(pyridin-2-ylsulfonyl)cyclohexanecarboxamide], the IC50 falls from 233 nM to 43 nM (5.4-fold).

Compared with `CC(C)Oc1ccc(NC(=O)[C@@H]2CCC[C@@H](S(=O)(=O)c3ccccc3)C2)nc1` (racemic) [Example 7, (1R*,3R*)-N-(5-isopropoxypyridin-2-yl)-3-(phenylsulfonyl)cyclohexanecarboxamide], `CC(C)Oc1ccc(NC(=O)[C@@H]2CCC[C@@H](S(=O)(=O)c3ccncc3)C2)nc1` (racemic) [Example 9, (1R*,3R*)-N-(5-isopropoxypyridin-2-yl)-3-(pyridin-4-ylsulfonyl)cyclohexanecarboxamide] is 4.4-fold higher in IC50: 30 nM for the first, 131 nM for the second.

First: CC(C)Oc1ccc(NC(=O)[C@@H]2CCC[C@@H](S(=O)(=O)c3ncccn3)C2)nc1 (racemic) [Example 10, (1R*,3R*)-N-(5-isopropoxypyridin-2-yl)-3-(pyrimidin-2-ylsulfonyl)cyclohexanecarboxamide]
Second: CC(C)Oc1ccc(NC(=O)[C@@H]2CCC[C@@H](S(=O)(=O)c3cnccn3)C2)nc1 (racemic) [Example 13, (1R*,3R*)-N-(5-isopropoxypyridin-2-yl)-3-(pyrazin-2-ylsulfonyl)cyclohexanecarboxamide]
The IC50 of the first is 5-fold lower: 26 nM for the first, 130 nM for the second. The first is the more potent here.

`CC(C)Oc1ccc(NC(=O)[C@@H]2CCC[C@@H](S(=O)(=O)c3nccs3)C2)nc1` (racemic) [Example 11, (1R*,3R*)-N-(5-isopropoxypyridin-2-yl)-3-(1,3-thiazol-2-ylsulfonyl)cyclohexanecarboxamide] showed an IC50 of 32 nM.
